Source: article PMC3856571 (Journal of the American Chemical Society, 2013)
pKd: −log10 of the molar value. Blank lines part the entries; values can stand above or below the compound they belong to. Numbered stars: 1 amine (or outer) side, 2 acyl side, 3 side chain; on linkers, the order of the positions; unused ones are H or OH. Bridge positions count the residues as written; N and C are the ends. Square brackets hold non-standard residues; d marks the D form. Peptide text beside a SMILES is read from it. Trimesoyl = O=C(c1cc(C(=O)[*:2])cc(C(=O)[*:3])c1)[*:1]; Phg = N[C@H](C(=O)O)c1ccccc1; Nle = CCCC[C@H](N)C(=O)O; Dap = NC[C@H](N)C(=O)O

How the values were obtained:
HIV capsid protein = HIV capsid protein (Human immunodeficiency virus type 1 group M subtype B, UniProt P04591); experiment: Fluorescence anisotropy specificity test, HIV capsid protein; format: binding; conditions: FA
WEHI-13VAR fibroblasts = format: cell-based
[1] = target: T1, protein phosphatase PTP1B (Homo sapiens, UniProt P18031); experiment: Fluorescence anisotropy specificity test, PTP1B; format: binding; conditions: FA
T1 sequence (P18031 1-435): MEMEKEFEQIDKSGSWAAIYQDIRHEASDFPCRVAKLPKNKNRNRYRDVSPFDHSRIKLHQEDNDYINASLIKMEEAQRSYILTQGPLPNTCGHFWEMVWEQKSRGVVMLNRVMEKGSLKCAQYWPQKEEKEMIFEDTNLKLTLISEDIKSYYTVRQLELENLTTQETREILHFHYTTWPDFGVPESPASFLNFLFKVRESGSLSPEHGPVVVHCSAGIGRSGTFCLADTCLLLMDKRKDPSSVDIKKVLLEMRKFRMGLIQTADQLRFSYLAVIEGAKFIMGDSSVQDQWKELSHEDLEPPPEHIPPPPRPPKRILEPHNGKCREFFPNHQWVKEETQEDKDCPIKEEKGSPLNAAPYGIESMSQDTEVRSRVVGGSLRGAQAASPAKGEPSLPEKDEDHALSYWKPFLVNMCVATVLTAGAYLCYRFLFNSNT

[2] = target: bovine serum albumin (BSA) (Bos taurus, UniProt P02769); experiment: Fluorescence anisotropy specificity test, BSA; format: binding
GST-BRCT fusion protein = conditions: FA
[3] = target: glutathione-S-transferase-PLCγ SH2 domain fusion (GST-SH2); experiment: Fluorescence anisotropy specificity test, GST-SH2; format: binding; conditions: FA, Fig. S4
TNFα = TNFα (Homo sapiens, UniProt P01375); experiment: Fluorescence anisotropy binding of resynthesized FITC-labeled peptides; conditions: resynthesized FITC-labeled peptide, FA analysis, Fig. S3
Sequence of TNFα (P01375 77-233 limits assumed): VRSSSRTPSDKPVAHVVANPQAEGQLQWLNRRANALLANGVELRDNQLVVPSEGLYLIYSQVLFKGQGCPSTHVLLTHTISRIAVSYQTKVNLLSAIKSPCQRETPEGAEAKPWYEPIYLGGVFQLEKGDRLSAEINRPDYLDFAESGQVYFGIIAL

Sequence of bovine serum albumin (BSA) (P02769 25-607): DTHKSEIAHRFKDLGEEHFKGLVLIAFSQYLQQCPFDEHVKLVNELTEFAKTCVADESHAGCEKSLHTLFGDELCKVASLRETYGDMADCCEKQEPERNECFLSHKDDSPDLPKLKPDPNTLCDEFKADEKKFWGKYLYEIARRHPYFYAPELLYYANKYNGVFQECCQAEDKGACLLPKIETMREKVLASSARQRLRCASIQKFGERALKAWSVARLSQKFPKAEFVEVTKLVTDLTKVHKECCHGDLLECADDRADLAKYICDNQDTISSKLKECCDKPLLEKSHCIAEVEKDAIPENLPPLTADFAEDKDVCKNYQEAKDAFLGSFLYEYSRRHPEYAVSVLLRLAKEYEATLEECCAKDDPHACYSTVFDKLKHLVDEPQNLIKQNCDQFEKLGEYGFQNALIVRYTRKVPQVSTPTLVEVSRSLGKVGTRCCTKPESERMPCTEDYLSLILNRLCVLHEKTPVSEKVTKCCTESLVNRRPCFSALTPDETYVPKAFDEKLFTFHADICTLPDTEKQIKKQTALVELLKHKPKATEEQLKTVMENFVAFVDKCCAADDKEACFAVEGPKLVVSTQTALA

Compound: C[C@H]1NC(=O)[C@H](Cc2ccc(O)cc2)NC(=O)[C@H](c2ccccc2)NC(=O)c2cc3cc(c2)C(=O)NC[C@@H](C(N)=O)NC(=O)[C@H](Cc2c[nH]cn2)NC(=O)[C@@H](CCCCN)NC(=O)CNC(=O)[C@@H](Cc2ccccc2)NC(=O)[C@H](Cc2ccc(O)cc2)NC(=O)[C@H](CCCCNC3=O)NC1=O [Anticachexin C1, bicyclo(Phg-Tyr-D-Ala-Lys-Tyr-D-Phe-Gly-D-Lys-His-Dap)] ([Phg]Y[dA]KY[dF]G[dK]H[Dap]-NH2; linker N-4-10 via Trimesoyl; C-terminus assumed)
- binding to HIV capsid protein (HIV capsid protein): not to any of the other proteins
- LD50 of TNFα in the presence of 50 μM Anticachexin C1 (WEHI-13VAR fibroblasts; TNFα 0-250 ng/mL, fixed 50 μM Anticachexin C1, MTT, Fig. S6): 1.8 ng/mL
- protection of cells from TNFα-induced cell death (WEHI-13VAR fibroblasts; TNFα 0.04 ng/ml, actinomycin-D, peptide 0-25 μM, MTT, Fig. 4c): protected the cells from TNFα-induced cell death in a concentration-dependent manner
- binding to PTP1B [1]: not to any of the other proteins
- pKd [2]: ~4.47
- binding to GST-BRCT fusion protein (GST-BRCT fusion protein): not to any of the other proteins
- KD for GST-SH2 [3]: not to any of the other proteins

- pKd [2]: 5.13
- pKd ([3]; read-out: KD for GST-SH2): 5.82
Compound: CCCC[C@@H]1NC(=O)[C@@H]2CCCCNC(=O)c3cc(cc(c3)C(=O)N[C@@H](C)C(=O)N[C@H](Cc3ccccc3)C(=O)N[C@@H](Cc3c[nH]c4ccccc34)C(=O)N[C@H]([C@H](C)O)C(=O)N[C@@H](CCC(N)=O)C(=O)N2)C(=O)NC[C@@H](C(N)=O)NC(=O)[C@H](Cc2c[nH]cn2)NC(=O)[C@H](C)NC(=O)[C@@H](CC(C)C)NC1=O [Anticachexin C2, bicyclo(Ala-D-Phe-Trp-D-Thr-Gln-Lys-Nle-D-Leu-Ala-His-Dap)] (A[dF]W[dT]QK[Nle][dL]AH[Dap]-NH2; linker N-6-11 via Trimesoyl; C-terminus assumed)

- KD for TNFα (TNFα): no detectable binding
Compound: Bicyclo(Arg-Arg-Arg-Arg-Nal-Phe-Dap-Ser-D-Val-Pro-pTyr-His-Dap)

Compound: TNFα
- LD50 of TNFα in the absence of TNFα inhibitor (WEHI-13VAR fibroblasts; TNFα 0-250 ng/mL, MTT, Fig. S6): 0.46 ng/mL
